Columns and labels:
[1] = tested on: H9c2 rat cardiac myoblasts; experiment: Morphological observation of muscle differentiation of myoblasts in DM; format: cell-based; details: 72 hours in DM
Experimental: As a control, myoblasts were cultured in the absence of the drugs. Before use, the myoblasts were cultured to a cell confluency of about 70%.

myogenin and MRF4 = experiment: Western blot of myogenic markers myogenin and MRF4; format: cell-based, rat; details: DM
Experimental: In addition, the protein expression levels of the myogenin and MRF4, early and late myogenic markers, were determined by Western blot analysis. To this end, myoblast extracts treated with the drugs were separated on SDS-PAGE and transferred onto a nitrocellulose membrane which was then blocked and reacted with predetermined primary antibodies (polyclonal myogenic antibody and polyclonal MRF4 antibody (Santa Cruz, Calif., USA) and then with a secondary antibody (anti-rabbit IgG-HRP conjugate with a chemiluminescent reactive enzyme able to detect the primary antibodies) (Santa Cruz, Calif., USA). Finally, the specimens were detected by enhanced ECL-plus chemiluminescence (Amersham Pharmacia Biotech, Piscataway, N.J., USA). Non-myogenic β-actin protein was used as a loading control.

H9c2 myoblasts = experiment: Apoptosis by in-situ TUNEL assay and DNA fragmentation analysis; format: cell-based, rat; details: 72 hours in DM
Experimental: TUNEL analysis was performed using ApopTag Flurescein In situ Apoptosis Detection kit (Intergen, Purchase, N.Y.). The results are given in FIG. 2c where arrows indicate TUNEL positive cells.
Once cells undergo apoptosis, the DNA is digested into fragments diferring by 180-200 bp by endonuclease. […] DNA fragmentation aiming to identify the DNA laddering pattern was performed as follows. […] The cell lysates thus obtained were treated with 50 μg/ml RNase A at 37° C. for 2 hours and then with 500 μg/ml proteinase K at 55° C. for 2 hours. DNA was extracted by a phenol/chloroform method and precipitated in 70% (v/v) isopropanol. After being centrifuged at 15,000 rpm for 15 min, the precipitates were dissolved in a TE buffer (10 mM Tris-HCl (pH 8.0), 1 mM EDTA).

ROS = experiment: Cellular ROS level by DCF flow cytometry (FACS); format: cell-based, rat; details: 10 μM, 24 hours in DM
Experimental: H9c2 myoblasts were cultured for 24 hours in PM and in DM, and then in the presence of 10 μM DCF (2′,7′-dichlorofluorescein). After being harvested, the cells were washed once with PBS and resuspended in […] of PBS. The cellular levels of ROS generated were measured by flow cytometry (FACS), there values were regarded as controls. […] ROS levels were analyzed by FACS. […] ROS levels were measure as the above. The results are given in FIG. 5a where numerals indicate mean±standard deviation values of the ROS levels in the cells.

C/C=C/C[C@@H](C)[C@@H](O)[C@H]1C(=O)N[C@@H](CC)C(=O)N(C)CC(=O)N(C)[C@@H]([C@@H](C)CC)C(=O)N[C@@H](C(C)C)C(=O)N(C)[C@@H](CC(C)C)C(=O)N[C@@H](C)C(=O)N[C@H](C)C(=O)N(C)[C@@H](CC(C)C)C(=O)N(C)[C@@H](CC(C)C)C(=O)N(C)[C@@H](C(C)C)C(=O)N1C [SDZ NIM811]
morphological changes during muscle differentiation [1]: blocks the myoblast differentiation | myogenin and MRF4 protein expression (myogenin and MRF4; 1 μM): partial suppression | myogenin and MRF4 protein expression (myogenin and MRF4; concentrations higher than 1 μM): complete suppression | apoptosis (TUNEL, DNA laddering) (H9c2 myoblasts): dose dependent | ROS level (mean±standard deviation) (ROS): 634±20
